Test results reported in patent US12403091B2, “Delivery system” (SMARTECH TOPICAL, INC., priority 2016, dated 2025).

Details: same subject; Celebrex initiated and stopped after 3 days

SMILES: Cc1ccc(-c2cc(C(F)(F)F)nn2-c2ccc(S(N)(=O)=O)cc2)cc1 [Celebrex, celecoxib]
- Side effects leading to discontinuation: drowsiness and GI side effects
